Reference: US20130116241A1, “NOVEL INHIBITOR COMPOUNDS OF PHOSPHODIESTERASE TYPE 10A” (AbbVie Inc., priority 2011, published 2013)
Where a name gives a salt, the structure may show the parent alone.

What follows are molecules tested against human PDE10A (UniProt Q9Y233) (assay: Measurement of PDE activity (recombinant enzyme, HTRF cAMP kit)). Details: Table 1, substrate 20 nM for PDE10, 60 minutes at 29 C, read-out: IC50.
Assay type: biochemical
Procedure, shortened: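 HTRF detection of cAMP left after hydrolysis, expressed as percent of uninhibited control to derive IC50. Reaction: serially diluted inhibitor mixed with recombinant enzyme, started with 20 nM cAMP, 60 min at 29 °C in Tris-HCl pH 7.5 buffer containing MgCl2 and BSA.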

Chain of human PDE10A (Q9Y233 290-1055 limits assumed): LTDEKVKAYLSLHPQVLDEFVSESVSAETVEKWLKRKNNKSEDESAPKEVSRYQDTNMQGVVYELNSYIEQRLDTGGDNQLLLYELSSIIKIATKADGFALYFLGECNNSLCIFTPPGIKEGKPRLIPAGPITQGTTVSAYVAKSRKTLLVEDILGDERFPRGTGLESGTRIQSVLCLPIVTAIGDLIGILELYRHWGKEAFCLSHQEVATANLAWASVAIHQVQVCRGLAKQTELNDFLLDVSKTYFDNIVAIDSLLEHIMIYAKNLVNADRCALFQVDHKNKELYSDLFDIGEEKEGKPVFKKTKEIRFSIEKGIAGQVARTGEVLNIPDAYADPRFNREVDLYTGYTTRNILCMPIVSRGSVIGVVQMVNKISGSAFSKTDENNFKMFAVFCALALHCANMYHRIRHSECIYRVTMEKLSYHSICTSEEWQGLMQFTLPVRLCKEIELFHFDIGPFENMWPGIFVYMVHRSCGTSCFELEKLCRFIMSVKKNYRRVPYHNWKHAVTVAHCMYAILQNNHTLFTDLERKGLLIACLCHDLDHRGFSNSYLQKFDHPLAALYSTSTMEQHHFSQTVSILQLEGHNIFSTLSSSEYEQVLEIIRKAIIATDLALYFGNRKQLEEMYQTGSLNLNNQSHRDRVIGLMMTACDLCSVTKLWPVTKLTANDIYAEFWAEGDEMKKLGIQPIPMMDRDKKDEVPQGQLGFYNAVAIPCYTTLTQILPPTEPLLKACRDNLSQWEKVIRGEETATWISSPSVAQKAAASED

SMILES | IC50
O=c1c2c(-c3ccncc3O)csc2ccn1CCc1ccc2ccccc2n1 [Example 203, 3-(3-Hydroxypyridin-4-yl)-5-[2-(quinolin-2-yl)ethyl]thieno[3,2-c]pyridin-4(5H)-one hydrochloride] | 200 to 500 nM
Cn1nccc1-c1csc2ccn(CCc3ccc4ccccc4n3)c(=O)c12 [Example 204, 3-(1-Methyl-1H-pyrazol-5-yl)-5-[2-(quinolin-2-yl)ethyl]thieno[3,2-c]pyridin-4(5)H-one hydrochloride] | < 100 nM
O=c1c2c(-c3ccncc3)csc2ccn1CCc1ccc2ccccc2n1 [Example 205, 3-(Pyridin-4-yl)-5-[2-(quinolin-2-yl)ethyl]thieno[3,2-c]pyridin-4(5H)-one hydrochloride] | < 100 nM
O=c1c2c(-c3cncnc3)csc2ccn1CCc1ccc2ccccc2n1 [Example 206] | < 100 nM
O=C1Cc2ccc(-c3csc4ccn(CCc5ccc6ccccc6n5)c(=O)c34)cc2N1 [Example 207, 3-(2-Oxoindolin-6-yl)-5-[2-(quinolin-2-yl)ethyl]thieno[3,2-c]pyridin-4(5H)-one] | < 100 nM
O=c1c2c(-c3cccc(O)c3)csc2ccn1CCc1ccc2ccccc2n1 [Example 208, 3-(3-Hydroxyphenyl)-5-[2-(quinolin-2-yl)ethyl]thieno[3,2-c]pyridin-4(5H)-one hydrochloride] | < 100 nM
CCc1ccc(CCn2ccc3scc(-c4ccncc4)c3c2=O)nc1 [Example 209, 5-[2-(5-Ethylpyridin-2-yl)ethyl]-3-(pyridin-4-yl)thieno[3,2-c]pyridin-4(5H)-one hydrochloride] | 200 to 500 nM
O=c1c2c(C3=CCNCC3)csc2ccn1CCc1ccc2ccccc2n1 [Example 213, 5-(2-(Quinolin-2-yl)ethyl)-3-(1,2,3,6-tetrahydropyridin-4-yl)thieno[3,2-c]pyridin-4(5H)-one hydrochloride] | 200 to 500 nM
Cc1csc2c(-c3ccncc3)cn(CCc3ccc4ccccc4n3)c(=O)c12 [Example 216, 3-Methyl-7-(pyridin-4-yl)-5-(2-(quinolin-2-yl)ethyl)thieno[3,2-c]pyridin-4(5H)-one] | < 100 nM
O=c1c2c(-c3ccncc3)cccc2ccn1/C=C/c1ccc2ccccc2n1 [Example 221, (E)-8-(Pyridin-4-yl)-2-(2-(quinolin-2-yl)vinyl)isoquinolin-1(2H)-one] | < 100 nM
O=c1c2c(-c3ccncc3)cccc2ccn1CCc1ccc2ccccc2n1 [Example 223, 8-(Pyridin-4-yl)-2-(2-quinolin-2-yl-ethyl)isoquinolin-1(2H)-one] | < 100 nM
O=c1c2c(-c3ccncc3)cccc2cnn1/C=C/c1ccc2ccccc2n1 [Example 225] | < 100 nM
O=c1c2c(-c3ccncc3)coc2ccn1CCc1ccc2ccccc2n1 [Example 228, 3-(Pyridin-4-yl)-5-(2-(quinolin-2-yl)ethyl)furo[3,2-c]pyridin-4(5H)-one hydrochloride] | < 100 nM
O=c1c2c(-c3ccncc3)coc2ccn1CCc1nc2ccccc2[nH]1 [Example 229, 5-(2-(1H-Benzo[d]imidazol-2-yl)ethyl)-3-(pyridin-4-yl)furo[3,2-c]pyridin-4(5H)-one hydrochloride] | < 100 nM
O=c1c2c(-c3cncnc3)coc2ccn1CCc1ccc2ccccc2n1 [Example 231, 3-(Pyrimidin-5-yl)-5-(2-(quinolin-2-yl)ethyl)furo[3,2-c]pyridin-4(5H)-one] | < 100 nM
C=C(Cn1ncc2nccc(-c3ccncc3)c2c1=O)c1ccc2ccccc2n1 [Example 234, 4-(Pyridin-4-yl)-6-(2-(quinolin-2-yl)allyl)pyrido[2,3-d]pyridazin-5(6H)-one] | < 100 nM
O=c1c2c(-c3cccnc3)cccc2ccn1C1CC1c1ccc2ccccc2n1 (stereo not drawn) [Example 239, anti 8-(pyridin-3-yl)-2-(2-(quinolin-2-yl)cyclopropyl)isoquinolin-1(2H)-one hydrochloride] | < 100 nM
O=c1c2c(N3CCC[C@H](O)C3)cccc2ccn1C1CC1c1ccc2ccccc2n1 (stereo partly drawn) [Example 244, anti 8-((3S)-3-hydroxypiperidin-1-yl)-2-(2-(quinolin-2-yl)cyclopropyl)isoquinolin-1(2H)-one (2E)-but-2-enedioate] | < 100 nM
O=c1c2c(N3CC[C@H](O)C3)cccc2ccn1C1CC1c1ccc2ccccc2n1 (stereo partly drawn) [Example 249, anti 8-((3S)-3-hydroxypyrrolidin-1-yl)-2-(2-(quinolin-2-yl)cyclopropyl)isoquinolin-1(2H)-one di[(2E)-but-2-enedioate]] | 200 to 500 nM

Now from value to molecule:

IC50 | SMILES
< 100 nM | O=c1c2c(N3CC4COCC4C3)cccc2cnn1CCc1cn2ccccc2n1 (stereo not shown) [Example 176, 2-[2-(Imidazo[1,2-a]pyridin-2-yl)ethyl]-8-(tetrahydro-1H-furo[3,4-c]pyrrol-5(3H)-yl)phthalazin-1(2H)-one hydrochloride]
100 to 200 nM | O=c1c2c(N3CCC(F)(F)CC3)cccc2cnn1CCc1cn2ccccc2n1 [Example 179, 8-(4,4-Difluoropiperidin-1-yl)-2-[2-(imidazo[1,2-a]pyridin-2-yl)ethyl]phthalazin-1(2H)-one]
200 to 500 nM | O=c1c2c(N3CCCCC3)cccc2cnn1CCc1cn2ccccc2n1 [Example 181, 2-[2-(Imidazo[1,2-a]pyridin-2-yl)ethyl]-8-(piperidin-1-yl)phthalazin-1(2H)-one hydrochloride]
100 to 200 nM | O=c1c2c(N3CCCOCC3)cccc2cnn1CCc1cn2ccccc2n1 [Example 190, 2-[2-(Imidazo[1,2-a]pyridin-2-yl)ethyl]-8-(1,4-oxazepan-4-yl)phthalazin-1(2H)-one hydrochloride]
200 to 500 nM | CC(C)(C)OC(=O)N1CC=C(c2cccc3cnn(CCc4cn5ccccc5n4)c(=O)c23)CC1 [Example 191, tert-Butyl 4-{3-[2-(imidazo[1,2-a]pyridin-2-yl)ethyl]-4-oxo-3,4-dihydrophthalazin-5-yl}-3,6-dihydropyridine-1(2H)-carboxylate]
< 100 nM | O=c1c2cccc(-c3ccncc3)c2cnn1CCc1ccc2ccccc2n1 [Example 192, 5-(Pyridin-4-yl)-2-[2-(quinolin-2-yl)ethyl]phthalazin-1(2H)-one hydrochloride]
< 100 nM | O=c1c2cccc(-c3cncnc3)c2cnn1CCc1ccc2ccccc2n1 [Example 193, 5-(Pyrimidin-5-yl)-2-[2-(quinolin-2-yl)ethyl]phthalazin-1(2H)-one hydrochloride]
< 100 nM | Cn1nccc1-c1cccc2c(=O)n(CCc3ccc4ccccc4n3)ncc12 [Example 194, 5-(1-Methyl-1H-pyrazol-5-yl)-2-[2-(quinolin-2-yl)ethyl]phthalazin-1(2H)-one]
100 to 200 nM | O=c1c2cccc(N3CCS(=O)(=O)CC3)c2cnn1CCc1ccc2ccccc2n1 [Example 195, 5-(1,1-Dioxidothiomorpholin-4-yl)-2-[2-(quinolin-2-yl)ethyl]phthalazin-1(2H)-one]
< 100 nM | O=c1c2cccc(-c3cccnc3)c2cnn1CCc1cn2ccccc2n1 [Example 196, 2-[2-(Imidazo[1,2-a]pyridin-2-yl)ethyl]-5-(pyridin-3-yl)phthalazin-1(2H)-one]
< 100 nM | O=c1c2cccc(-c3cncnc3)c2cnn1CCc1cn2ccccc2n1 [Example 197, 2-[2-(Imidazo[1,2-a]pyridin-2-yl)ethyl]-5-(pyrimidin-5-yl)phthalazin-1(2H)-on]
< 100 nM | O=c1c2cccc(N3CCOCC3)c2cnn1CCc1cn2ccccc2n1 [Example 198, 2-[2-(Imidazo[1,2-a]pyridin-2-yl)ethyl]-5-(morpholin-4-yl)phthalazin-1(2H)-one hydrochloride]
< 100 nM | O=c1c2cccc(N3CC4COCC4C3)c2cnn1CCc1cn2ccccc2n1 (stereo not shown) [Example 199, 2-[2-(Imidazo[1,2-a]pyridin-2-yl)ethyl]-5-(tetrahydro-1H-furo[3,4-c]pyrrol-5(3H)-yl)phthalazin-1(2H)-one hydrochloride]
< 100 nM | O=c1c2ccccc2c(-c2cncnc2)nn1CCc1cn2ccccc2n1 [Example 200, 2-[2-(Imidazo[1,2-a]pyridin-2-yl)ethyl]-4-(pyrimidin-5-yl)phthalazin-1(2H)-one]
200 to 500 nM | O=c1c2ccccc2c(N2CCOCC2)nn1CCc1cn2ccccc2n1 [Example 201, 2-[2-(Imidazo[1,2-a]pyridin-2-yl)ethyl]-4-(morpholin-4-yl)phthalazin-1(2H)-one]
< 100 nM | O=c1c2c(-c3ccncc3)csc2ccn1CCc1cn2ccccc2n1 [Example 210, 5-[2-(Imidazo[1,2-a]pyridin-2-yl)ethyl]-3-(pyridin-4-yl)thieno[3,2-c]pyridin-4(5H)-one hydrochloride]
200 to 500 nM | O=c1c2c(N3CCOCC3)csc2ccn1CCc1ccc2ccccc2n1 [Example 211, 3-(Morpholin-4-yl)-5-[2-(quinolin-2-yl)ethyl]thieno[3,2-c]pyridin-4(5H)-one hydrochloride]
100 to 200 nM | O=c1c2c(C3CCNCC3)csc2ccn1CCc1ccc2ccccc2n1 [Example 215, 3-(Piperidin-4-yl)-5-[2-(quinolin-2-yl)ethyl]thieno[3,2-c]pyridin-4(5H)-one trifluoroacetate]
< 100 nM | O=c1c2c(N[C@@H]3CCNC3)cccc2cnn1CCc1cn2ccccc2n1 [Example 219, 2-[2-(Imidazo[1,2-a]pyridin-2-yl)ethyl]-8-[(3R)-pyrrolidin-3-ylamino]phthalazin-1(2H)-one dihydrochloride]
100 to 200 nM | O=c1c2c(-c3ccncc3)coc2ccn1CCc1cn2ccccc2n1 [Example 230, 5-(2-(Imidazo[1,2-a]pyridin-2-yl)ethyl)-3-(pyridin-4-yl)furo[3,2-c]pyridin-4(5H)-one hydrochloride]
< 100 nM | O=c1c2c(N3CCOCC3)cccc2ccn1C1CC1c1ccc2ccccc2n1 (stereo not drawn) [Example 246, anti 8-morpholino-2-(2-(quinolin-2-yl)cyclopropyl)isoquinolin-1(2H)-one]
